ChEMBL document CHEMBL1926527, “Pharmacophore insights into rpoB gene mutations in Mycobacterium tuberculosis rifampicin resistant isolates” (2012)
Converted amounts (≈) assume the structure as drawn.

How the values were obtained:
Type in all cases: functional
[1] = test system: Mycobacterium tuberculosis; assay: Antimycobacterial activity against Mycobacterium tuberculosis H37Rv ATCC 27294 expressing wild-type rpoB gene by resazurin microtiter assay
[2] = test system: Mycobacterium tuberculosis; assay: Antimycobacterial activity against Mycobacterium tuberculosis isolate MA03 expressing wild-type rpoB gene by resazurin microtiter assay
[3] = test system: Mycobacterium tuberculosis; assay: Antimycobacterial activity against Mycobacterium tuberculosis isolate 353 expressing wild-type rpoB gene by resazurin microtiter assay
[4] = test system: Mycobacterium tuberculosis; assay: Antimycobacterial activity against Mycobacterium tuberculosis isolate 359 expressing wild-type rpoB gene by resazurin microtiter assay
[5] = test system: Mycobacterium tuberculosis; assay: Antimycobacterial activity against Mycobacterium tuberculosis isolate 361 expressing wild-type rpoB gene by resazurin microtiter assay

Row | Structure (SMILES) | MIC [1] [µg/mL] | MIC [2] [µg/mL] | MIC [3] [µg/mL] | MIC [4] [µg/mL] | MIC [5] [µg/mL]
1 | C=CCCCCCCCCC(=O)N1C2=C3NC(=O)/C(C)=C\C=C\[C@H](C)[C@H](O)[C@@H](C)[C@@H](O)[C@@H](C)[C@H](OC(C)=O)[C@H](C)[C@@H](OC)/C=C/O[C@@]4(C)Oc5c(C)c(O)c(c(c5C4=O)C2=NC12CCN(CC(C)C)CC2)C3=O | 0.06 (≈ 0.0592 µM) | < 0.06 | > 2 | < 0.06 | < 0.06
2 | CCCCCCCCCCCCCCCC(=O)N1C2=C3NC(=O)/C(C)=C\C=C\[C@H](C)[C@H](O)[C@@H](C)[C@@H](O)[C@@H](C)[C@H](OC(C)=O)[C@H](C)[C@@H](OC)/C=C/O[C@@]4(C)Oc5c(C)c(O)c(c(c5C4=O)C2=NC12CCN(CC(C)C)CC2)C3=O | 0.06 (≈ 0.0553 µM) | < 0.06 | > 2 | < 0.06 | < 0.06
3 | CO[C@H]1/C=C/O[C@@]2(C)Oc3c(C)c(O)c4c(c3C2=O)C2=NC3(CCN(CC(C)C)CC3)N(C(C)=O)C2=C(NC(=O)/C(C)=C\C=C\[C@H](C)[C@H](O)[C@@H](C)[C@@H](O)[C@@H](C)[C@H](OC(C)=O)[C@@H]1C)C4=O | 0.06 (≈ 0.0675 µM) | < 0.06 | 0.12 (≈ 0.135 µM) | < 0.06 | < 0.06
4 | CO[C@H]1/C=C/O[C@@]2(C)Oc3c(C)c(O)c4c(c3C2=O)C2=NC3(CCN(CC(C)C)CC3)NC2=C(NC(=O)/C(C)=C\C=C\[C@H](C)[C@H](O)[C@@H](C)[C@@H](O)[C@@H](C)[C@H](O)[C@@H]1C)C4=O | 0.06 (≈ 0.0745 µM) | < 0.06 | > 2 | < 0.06 | < 0.06
5 | CO[C@H]1/C=C/O[C@@]2(C)Oc3c(C)c(O)c4c(c3[C@H]2O)C2=NC3(CCN(CC(C)C)CC3)N(C(C)=O)C2=C(NC(=O)/C(C)=C\C=C\[C@H](C)[C@H](O)[C@@H](C)[C@@H](O)[C@@H](C)[C@H](OC(C)=O)[C@@H]1C)C4=O | 0.06 (≈ 0.0673 µM) | < 0.06 | > 2 | < 0.06 | < 0.06
6 | CO[C@H]1/C=C/O[C@@]2(C)Oc3c(C)c(O)c4c(c3C2=O)C2=NC3(CCN(CC(C)C)CC3)NC2=C(NC(=O)/C(C)=C\C=C\[C@H](C)[C@H](O)[C@@H](C)[C@@H](O)[C@@H](C)[C@H](OC(C)=O)[C@@H]1C)C4=O [RIFABUTIN] | 0.06 (≈ 0.0708 µM) | < 0.06 | 0.12 (≈ 0.142 µM) | < 0.06 | < 0.06
7 | CO[C@H]1/C=C/O[C@@]2(C)Oc3c(C)c(O)c4c(c3[C@H]2O)C2=NC3(CCN(CC(C)C)CC3)NC2=C(NC(=O)/C(C)=C\C=C\[C@H](C)[C@H](O)[C@@H](C)[C@@H](O)[C@@H](C)[C@H](O)[C@@H]1C)C4=O | 0.06 (≈ 0.0743 µM) | < 0.06 | 2 (≈ 2.48 µM) | 0.25 (≈ 0.31 µM) | 0.12 (≈ 0.149 µM)
8 | CO[C@H]1/C=C/O[C@@]2(C)Oc3c(C)c(O)c4c(O)c(c(/C=N/N5CCN(C)CC5)c(O)c4c3C2=O)NC(=O)/C(C)=C\C=C\[C@H](C)[C@H](O)[C@@H](C)[C@@H](O)[C@@H](C)[C@H](OC(C)=O)[C@@H]1C [RIFAMPIN] | 0.06 (≈ 0.0729 µM) | < 0.06 | > 2 | 0.12 (≈ 0.146 µM) | < 0.06
